According to patent US20020172720A1, “Control of pseudomonas aeruginosa” (priority 2001, published 2002):
Values joined by “and” are separate entries in the source; they are usually repeats but may differ in a detail not shown here. Equal entries are not always repeated.

System: Pseudomonas aeruginosa (ATCC 15442) biofilm
Assay: MBEC (minimum biofilm eradication concentration) test, Calgary Biofilm Device
Assay type: cell-based
Settings: for MBEC, ppm as Br2, on 7-day old biofilm: one-hour biocide contact time, biofilm grown seven days in nutrient solution, halogen biocides expressed as Br2
Description: The efficacy of this invention in eradicating (i.e. controlling) Pseudomonas aeruginosa biofilm of sufficient age such that it had developed an extracellular polysaccharide protective slime layer, was shown by a series of standard tests performed on our behalf at MBEC Biofilm Technologies, Inc., Calgary, Canada. The test procedure, developed at the University of Calgary, utilizes a device which allows the growth of 96 identical biofilms under carefully controlled conditions. The device consists of a two-part vessel comprised of an upper plate containing 96 pegs that seals against a bottom plate. The bottom plate can consist of either a trough (for biofilm growth) or a standard 96-well plate (for biocide challenge). The biofilms develop on the 96 pegs. The device has been used as a general method for evaluating the efficacy of antibiotics and biocides towards biofilms. See in this connection H. Ceri, et al., “The MBEC Test: A New In Vitro Assay Allowing Rapid Screening for Antibiotic Sensitivity of Biofilm”, Proceedings of the ASM, 1998,89,525; Ceri, et al., “Antifungal and Biocide Susceptibility testing of Candida Biofilms using the MBEC Device”, Proceedings of the Interscience Conference on Antimicrobial Agents and Chemotherapy, 1998, 38, 495; and H. Ceri, et al., “The Calgary Biofilm Device: A New Technology for the Rapid Determination of Antibiotic Susceptibility of Bacterial Biofilms”, Journal of Clinical Microbiology, 1999, 37, 1771-1776.
Six biocide systems were evaluated using the above test procedure and test equipment. Five of these systems were oxidizing biocides, viz., chlorine (from NaOCl), bromine (from NaOCl+NaBr), bromine and chlorine (from BCDMH), bromine (from sulfamate stabilized bromine chloride), and chlorine (from trichloroisocyanuric acid), all expressed as bromine (Br2) in mg/L, so that all test results were placed on the same basis. The sixth biocide was glutaraldehyde, a non-oxidizing biocide.
These biocide systems were used to challenge biofilms of Pseudomonas aeruginosa (ATCC 15442). This is a Gram (−) bacterium which is known to rapidly develop an extracellular polysaccharide slime layer, and is found in industrial and recreational water systems. See in this connection J. W. Costerton and H. Anwar, “Pseudomonas aeruginosa: The Microbe and Pathogen”, in Pseudomonas aeruginosa Infections and Treatment, A. L. Baltch and R. P. Smith editors, Marcel Dekker publishers, New York, 1994.
In the Table the MBEC (minimum biofilm eradication concentration) results presented are for the one-hour biocide contact time used in the test. The Psuedomonas aeurginosa colony was allowed to grow in contact with a nutrient solution for seven days. The values given for the halogen containing biocides are expressed in terms of mg/L of bromine as Br2. The data on the glutaraldehyde is in terms of mg/L as active ingredient. […]

[1] = average of the results, one-hour contact time, 7-day old biofilm, expressed as Br2

## O=CCCCC=O [Glutaraldehyde, glutaraldehyde]
Average (est.), one-hour contact time, 7-day old biofilm, glutaraldehyde as active ingredient
  MBEC, avg.: ~200 (est.) mg/L as active ingredient
Individual results, one-hour contact time, 7-day old biofilm, glutaraldehyde as active ingredient
  MBEC, on 7-day old biofilm: 100 mg/L as active ingredient and > 200 mg/L as active ingredient

## CC1(C)C(=O)N(Cl)C(=O)N1Br [Bromine and chlorine (from BCDMH), N,N′-bromochloro-5,5-dimethylhydantoin]
[1]
  MBEC, avg.: 7.5 ppm as Br2
Individual results
  MBEC, ppm as Br2, on 7-day old biofilm: 5 ppm as Br2 and 10 ppm as Br2

## O=c1n(Cl)c(=O)n(Cl)c(=O)n1Cl [trichloroisocyanuric acid]
[1]
  MBEC, avg.: 20 ppm as Br2
Individual results
  MBEC, ppm as Br2, on 7-day old biofilm: 20, 20 ppm as Br2
